Assay results reported in paper PMC9718554, “Discovery of a fragment hit compound targeting D-Ala:D-Ala ligase of bacterial peptidoglycan biosynthesis” (Journal of Enzyme Inhibition and Medicinal Chemistry, 2022).
Where two headings read alike, the source gives them in different places.

Legend:
[1] = Solubility at tested concentrations in the fragment library screening; type: physicochemical
Description: (§1) Supplement IENZ_A_2149745_SM2502.zip/DDlB_CDR05_SI_20221103.xlsx, sheet "Fragment library screening" | column: Solubility at tested concentrations

[2] = biological target: T1, E. coli DdlB enzyme (D-alanine:D-alanine ligase) (Escherichia coli, UniProt P07862); assay: biochemical; settings: read-out: DdlB RA; for remaining activity at 2000 µM: tested concentration 2.0 mM; for remaining activity at 2200 µM: tested concentration 2.2 mM; for remaining activity at 1700 µM: tested concentration 1.7 mM; for remaining activity at 1900 µM: tested concentration 1.9 mM; for remaining activity at 1800 µM: tested concentration 1.8 mM; for remaining activity at 2100 µM: tested concentration 2.1 mM; for remaining activity at 2300 µM: tested concentration 2.3 mM
T1 construct: made in house; host or cells: E. coli

[3] = Solubility at tested concentrations in fragment library screening; type: physicochemical; settings: tested concentration 2.2 mM
Description: as §1

[4] = Solubility at tested concentrations (fragment library screening); type: physicochemical
Description: as §1

[5] = at the Tested concentration [mM]

## O=C1CSC(c2ccccc2)N1c1ccccc1 (stereo not drawn) [Compound 2339-2195]
[1]; tested concentration 2.0 mM
  Solubility at tested concentrations: not soluble
[2]
  remaining activity at 2000 µM: 103%

## Cc1ccc(C)c(S(=O)(=O)N2CCCC(C)C2)c1 (stereo not drawn) [Compound Y206-4328]
[2]; residual activity
  remaining activity at 2200 µM: 116%
[3]
  Solubility at tested concentrations: not soluble

## O=c1c(NCc2ccco2)c(-c2ccccc2)c1=O [Compound E470-0461]
[1]; tested concentration 2.0 mM
  Solubility at tested concentrations: not soluble
[2]
  remaining activity at 2000 µM: 137%

## O=S(=O)(c1c[nH]cn1)N1CCCC1c1cccc(F)c1 (stereo not drawn) [Compound D399-0575]
[1]; [5]
  Solubility at tested concentrations: not soluble

## Cc1ccc(-c2c(N(C)c3ccc(C)cc3)c(=O)c2=O)cc1 [Compound E470-0191]
[1]; tested concentration 1.7 mM
  Solubility at tested concentrations: not soluble
[2]
  remaining activity at 1700 µM: 73%

## Cc1ccccc1-n1nnnc1C1(N(C)C)CCCC1 [Compound J034-0206]
[2]; residual activity
  remaining activity at 2200 µM: 91%
[3]
  Solubility at tested concentrations: not soluble

## CCCCc1ccc2ncc(C(=O)O)c(O)c2c1 [Compound Y044-2907]
[1]; tested concentration 2.0 mM
  Solubility at tested concentrations: not soluble
[2]
  remaining activity at 2000 µM: 85%

## CC1CCN(c2c(-c3ccccc3)c(=O)c2=O)CC1 [Compound E470-0346]
[1]; tested concentration 2.0 mM
  Solubility at tested concentrations: not soluble
[2]
  remaining activity at 2000 µM: 98%

## Cc1cccc(CC(=O)Nc2cccc(C(=O)O)c2)c1 [Compound Y206-6127]
[1]; tested concentration 1.9 mM
  Solubility at tested concentrations: not soluble
[2]
  remaining activity at 1900 µM: 58%

## CC1Cc2ccccc2N1c1c(-c2ccccc2)c(=O)c1=O (stereo not drawn) [Compound E470-0446]
[1]; tested concentration 1.7 mM
  Solubility at tested concentrations: not soluble
[2]
  remaining activity at 1700 µM: 2.16%

## O=C1CSC(c2ccccc2)N1CCc1ccccc1 (stereo not drawn) [Compound 1410-0151]
[1]; tested concentration 1.8 mM
  Solubility at tested concentrations: not soluble
[2]
  remaining activity at 1800 µM: 134%

## c1ccc(-c2nnc(CC34CC5CC(CC(C5)C3)C4)o2)nc1 [Compound Y502-6922]
[1]; [5]
  Solubility at tested concentrations: not soluble

## NS(=O)(=O)c1ccc(NC(=O)C2CCCC2)cc1 [Compound Y205-5953]
[1]; tested concentration 1.9 mM
  Solubility at tested concentrations: not soluble
[2]
  remaining activity at 1900 µM: 62%

## Cc1cc2nc(COC(=O)c3ccccc3)cc(=O)n2o1 [Compound G265-0746]
[1]; tested concentration 1.8 mM
  Solubility at tested concentrations: not soluble
[2]
  remaining activity at 1800 µM: -1%

## CCCNc1c(-c2ccc(C(C)C)cc2)c(=O)c1=O [Compound E511-0830]
[1]; tested concentration 1.9 mM
  Solubility at tested concentrations: not soluble
[2]
  remaining activity at 1900 µM: 101%

## O=C(O)c1nccnc1C(=O)Nc1ccc([N+](=O)[O-])cc1 [Compound C612-1047]
[1]; tested concentration 1.7 mM
  Solubility at tested concentrations: not soluble
[2]
  remaining activity at 1700 µM: 38%

## O=[N+]([O-])c1cc(Cl)c(O)c2ncccc12 [Compound 8017-0599]
[2]; residual activity
  remaining activity at 2200 µM: 55%
[4]; tested concentration 2.2 mM
  Solubility at tested concentrations: not soluble

## Cc1cc(C)c2ccc(/C=N/O)nc2c1O [Compound 0422-0035]
[1]; [5]
  Solubility at tested concentrations: not soluble

## CCc1cccc(NC(=O)c2ccc3cccc(O)c3n2)c1 [Compound G900-0169]
[2]
  remaining activity at 1700 µM: 69%
[4]; tested concentration 1.7 mM
  Solubility at tested concentrations: not soluble

## O=c1c(NCCN2CCCCCC2)c(-c2ccccc2)c1=O [Compound E470-0490]
[1]; tested concentration 1.7 mM
  Solubility at tested concentrations: not soluble
[2]
  remaining activity at 1700 µM: 88%

## COc1ccc(Cc2ccc(F)cc2)cc1B(O)O [Compound 8020-3675]
[1]; tested concentration 1.9 mM
  Solubility at tested concentrations: not soluble
[2]
  remaining activity at 1900 µM: 52%

## CC1CCN(S(=O)(=O)c2cnc(O)[nH]c2=O)CC1 [Compound D668-0109]
[2]; residual activity
  remaining activity at 1800 µM: 97%
[4]; tested concentration 1.8 mM
  Solubility at tested concentrations: not soluble

## Cc1cc(C)c(S(=O)(=O)N(C)C2CCCCC2)c(C)c1 [Compound Y030-0169]
[1]; [5]
  Solubility at tested concentrations: not soluble

## CCC(C)(C)Nc1c(-c2ccccc2)c(=O)c1=O [Compound E470-0411]
[2]
  remaining activity at 2100 µM: 48%
[4]; tested concentration 2.1 mM
  Solubility at tested concentrations: not soluble

## Cc1cccc(Nc2c(-c3ccccc3)c(=O)c2=O)c1 [Compound E470-0476]
[1]; tested concentration 1.9 mM
  Solubility at tested concentrations: not soluble
[2]
  remaining activity at 1900 µM: 43%

## O=C(O)c1cc(-c2ccc3ccccc3c2)[nH]n1 [Compound R052-2028]
[1]; tested concentration 2.1 mM
  Solubility at tested concentrations: not soluble
[2]
  remaining activity at 2100 µM: 50%

## COCCNc1c(-c2ccc(C)cc2)c(=O)c1=O [Compound E470-0131]
[2]
  remaining activity at 2000 µM: 78%
[4]; tested concentration 2.0 mM
  Solubility at tested concentrations: not soluble

## O=c1c(NCC2CCCO2)c(-c2ccccc2)c1=O (stereo not drawn) [Compound E470-0384]
[1]; tested concentration 1.9 mM
  Solubility at tested concentrations: not soluble
[2]
  remaining activity at 1900 µM: 81%

## O=C(O)c1cnc2ccc(F)cc2c1O [Compound Y042-3098]
[1]; tested concentration 2.4 mM
  Solubility at tested concentrations: not soluble
[2]; tested concentration 2.4 mM
  remaining activity at 2400 µM: 53%

## O=C(O)c1ccc(-c2ccccc2)nc1O [Compound D724-1054]
[1]; [5]
  Solubility at tested concentrations: not soluble

## Cc1cccc2c(O)c(C(=O)O)cnc12 [Compound 4491-1619]
[1]; [5]
  Solubility at tested concentrations: not soluble

## Oc1cccc(/C=C/c2ccc3cccc(O)c3n2)c1 [Compound 5617-0440]
[2]; residual activity
  remaining activity at 1900 µM: 55%
[4]; tested concentration 1.9 mM
  Solubility at tested concentrations: not soluble

## Cc1ccc(-c2nc(O)nc3ccccc23)cc1 [Compound 3740-0006]
[2]; residual activity
  remaining activity at 2100 µM: 83%
[4]; tested concentration 2.1 mM
  Solubility at tested concentrations: not soluble

## Oc1c(Cl)cc(Cl)c2ccc(Cl)nc12 [Compound 0422-0102]
[2]; residual activity
  remaining activity at 2000 µM: 99%
[4]; tested concentration 2.0 mM
  Solubility at tested concentrations: not soluble

## Oc1ccccc1/N=C/c1ccc2cccc(O)c2n1 [Compound 0422-0036]
[2]; residual activity
  remaining activity at 1900 µM: 79%
[4]; tested concentration 1.9 mM
  Solubility at tested concentrations: not soluble

## O=C(O)c1nccnc1C(=O)Nc1cccc(Cl)c1 [Compound C612-0847]
[2]; residual activity
  remaining activity at 1800 µM: 52%
[4]; tested concentration 1.8 mM
  Solubility at tested concentrations: not soluble

## O=C(O)c1cnc2cc(Cl)ccc2c1O [Compound Y042-3116]
[1]; tested concentration 2.2 mM
  Solubility at tested concentrations: not soluble
[2]
  remaining activity at 2200 µM: 44%

## CCc1cccc2c(=O)c(C(=O)O)c[nH]c12 [Compound 2595-1123]
[2]; residual activity
  remaining activity at 2300 µM: 47%
[4]; tested concentration 2.3 mM
  Solubility at tested concentrations: not soluble

## COc1ccccc1NC(=O)NC1COc2ccccc2C1 (stereo not drawn) [Compound G765-0207]
[1]; [5]
  Solubility at tested concentrations: not soluble

## Cc1cc(N)nn1CC(=O)O [Compound Y504-8763]
[2]; tested concentration 3.2 mM
  remaining activity at 3200 µM: 57%
[4]; tested concentration 3.2 mM
  Solubility at tested concentrations: not soluble

## COc1ccc(-c2ccc(C(=O)O)c(=O)[nH]2)cc1 [Compound D724-1039]
[2]; residual activity
  remaining activity at 2000 µM: 76%
[4]; tested concentration 2.0 mM
  Solubility at tested concentrations: not soluble

## Oc1cccc2c1nnc1nc(-c3cccnc3)nn12 [Compound Y021-2955]
[2]; residual activity
  remaining activity at 1900 µM: 45%
[4]; tested concentration 1.9 mM
  Solubility at tested concentrations: not soluble

## Oc1nc(-c2ccc(Cl)cc2)c2ccccc2n1 [Compound 3740-0004]
[2]; residual activity
  remaining activity at 1900 µM: 83%
[4]; tested concentration 1.9 mM
  Solubility at tested concentrations: not soluble

## Cc1cc(C)cc(NC(=O)c2ccc3cccc(O)c3n2)c1 [Compound G900-0230]
[2]
  remaining activity at 1700 µM: 92%
[4]; tested concentration 1.7 mM
  Solubility at tested concentrations: not soluble

## O=C(O)c1cnn2c(-c3ccco3)ccnc12 [Compound Y504-8728]
[1]; tested concentration 2.2 mM
  Solubility at tested concentrations: not soluble
[2]
  remaining activity at 2200 µM: 56%

## CC(C)c1ccc(C(=O)Nc2nnc[nH]2)cc1 [Compound Y200-5752]
[2]; residual activity
  remaining activity at 2200 µM: 52%
[4]; tested concentration 2.2 mM
  Solubility at tested concentrations: not soluble

## CC1=C(c2cccc(Cl)c2)S(=O)(=O)N=C1NC(C)C [Compound E013-2266]
[1]; [5]
  Solubility at tested concentrations: not soluble

## O=[N+]([O-])c1cc(Cl)c2cccnc2c1O [Compound 8011-4676]
[2]; residual activity
  remaining activity at 2200 µM: 49%
[4]; tested concentration 2.2 mM
  Solubility at tested concentrations: not soluble

## CCc1c(C)[nH]c(=O)c(C(=O)O)c1C#N [Compound 8020-6317]
[1]; [5]
  Solubility at tested concentrations: not soluble

## O=C(N/N=C/c1ccc2cccc(O)c2n1)c1ccncc1 [Compound 8006-6830]
[2]; residual activity
  remaining activity at 1700 µM: 71%
[4]; tested concentration 1.7 mM
  Solubility at tested concentrations: not soluble

## Cc1cc(C2CCCN2Cc2ccccc2O)on1 (stereo not drawn) [Compound J006-2498]
[2]
  remaining activity at 2300 µM: 90%
[4]; tested concentration 2.3 mM
  Solubility at tested concentrations: not soluble
